Laboratory results taken from patent publication US11014911B2, “CDK2 inhibitors” (Pfizer Inc., priority 2019, dated 2021).

How the values were obtained:
GSK3β (H350L) = GSK3β (H350L) (Homo sapiens (Human), UniProt P49841); test: biochemical; conditions: GSK3β Ki (nM)
Experimental: The assay was initiated with the addition of ATP, following 15 minutes pre-incubation of enzyme and inhibitor at room temperature in the reaction mixture. The reaction was stopped after 30 minutes at room temperature by the addition of 50 μL of 80 mM EDTA.

[1] = molecular target: CDK2/Cyclin E1 full length (Homo sapiens (Human), UniProt P24941); test: CDK2/Cyclin E1 full length mobility shift assay; type: biochemical
Experimental: Cdk2/Cyclin E1 Full Length Mobility Shift Assay
Wild-type CDK2/wild-type full length Cyclin E1 enzyme complex was produced in-house (baculoviral expression, LJIC-2080/LJIC-2103) and phosphorylated by CDK7/Cyclin H1/Matl enzyme complex with CDK2:CDK7 ratio of 50:1 (concentration mg/mL) in the presence of 10 mM MgCl2 and 5 mM ATP at room temperature for one hour. […] The assay was initiated with the addition of ATP, following a fifteen minutes pre-incubation of enzyme and inhibitor at room temperature in the reaction mixture. The reaction was stopped after 45 minutes at room temperature by the addition of 50 μL of 80 mM EDTA.

GSK3β (H350L), sequence (P49841 whole entry, stated change not applied): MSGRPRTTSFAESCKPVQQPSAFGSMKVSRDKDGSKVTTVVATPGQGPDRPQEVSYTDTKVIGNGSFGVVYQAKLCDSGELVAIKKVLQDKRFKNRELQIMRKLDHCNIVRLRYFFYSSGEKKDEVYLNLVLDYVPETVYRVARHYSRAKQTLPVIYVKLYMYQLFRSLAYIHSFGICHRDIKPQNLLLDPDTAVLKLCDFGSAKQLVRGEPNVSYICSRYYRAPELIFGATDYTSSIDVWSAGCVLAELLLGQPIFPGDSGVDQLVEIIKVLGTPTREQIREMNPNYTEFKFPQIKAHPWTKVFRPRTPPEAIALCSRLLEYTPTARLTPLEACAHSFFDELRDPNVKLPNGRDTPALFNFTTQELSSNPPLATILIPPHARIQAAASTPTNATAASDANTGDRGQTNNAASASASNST

SMILES	Ki (GSK3β (H350L)) [nM]	Ki [1] [nM]
COc1ccc(CC(=O)Nc2cc([C@H]3CC[C@@H](OC(=O)NC4(C)CCOC4)C3)[nH]n2)cc1 (single isomer, unassigned) [Example 484]	30.3	0.32
COc1cc(CC(=O)Nc2cc([C@H]3CC[C@@H](OC(=O)N4C[C@@H](C#N)[C@@H]4C)C3)[nH]n2)ccn1 (single isomer, unassigned) [Example 155]	1.63	0.13
Cc1cnc(CC(=O)Nc2cc([C@H]3CC[C@@H](OC(=O)NC4(C)CCOC4)C3)[nH]n2)o1 (single isomer, unassigned) [Example 477]	59.2	1.04
Cc1ccc(CC(=O)Nc2cc([C@H]3CC[C@@H](OC(=O)NC(C)C(C)(F)F)C3)[nH]n2)cn1 (single isomer, unassigned) [Example 388]	36.9	2.34
COCc1cc(C(=O)Nc2cc([C@H]3CC[C@@H](OC(=O)NC(C)CC(F)(F)F)C3)[nH]n2)n(C)n1 (single isomer, unassigned) [Example 9]	> 95.3	1.14
Cc1ncc(CC(=O)Nc2cc([C@H]3CC[C@@H](OC(=O)NC(C)C(C)(F)F)C3)[nH]n2)s1 (single isomer, unassigned) [Example 391]	38	1.38
CCC(NC(=O)O[C@@H]1CC[C@H](c2cc(NC(=O)Cc3ccnc(OC)c3)n[nH]2)C1)C(F)(F)F (single isomer, unassigned) [Example 406]	73.3	1.81
CCC(NC(=O)O[C@@H]1CC[C@H](c2cc(NC(=O)Cc3cnc(C)s3)n[nH]2)C1)C(F)(F)F (single isomer, unassigned) [Example 404]	84.3	1.38
COc1cnc(CC(=O)Nc2cc([C@H]3CC[C@@H](OC(=O)NC(C)CC(F)(F)F)C3)[nH]n2)cn1 (single isomer, unassigned) [Example 68]	16.3	0.36
CCC(NC(=O)O[C@@H]1CC[C@H](c2cc(NC(=O)Cc3cc(C)no3)n[nH]2)C1)C(F)(F)F (single isomer, unassigned) [Example 396]	139	2.1
COc1cc(CC(=O)Nc2cc([C@H]3CC[C@@H](OC(=O)N4CCC4C)C3)[nH]n2)ccn1 (single isomer, unassigned) [Example 153]	9.15	0.22
COc1ccc(CC(=O)Nc2cc([C@H]3CC[C@@H](OC(=O)NC4(C)CCOC4)C3)[nH]n2)cn1 (single isomer, unassigned) [Example 122]	12.7	0.22
CCC(CO)CNC(=O)O[C@@H]1CC[C@H](c2cc(NC(=O)Cc3cc(C)no3)n[nH]2)C1 (single isomer, unassigned) [Example 524]	10.9	1.69
Cc1cnc(CC(=O)Nc2cc([C@@H]3CC[C@H](OC(=O)NC4(C)CCOC4)C3)[nH]n2)o1 (single isomer, unassigned) [Example 475]	23.9	0.83
CCC(CO)CNC(=O)O[C@@H]1CC[C@H](c2cc(NC(=O)Cc3ccnc(OC)c3)n[nH]2)C1 (single isomer, unassigned) [Example 535]	3.8	1.21
O=C(Cc1cc(F)cc(F)c1)Nc1cc([C@@H]2CC[C@H](OC(=O)NCC3CCCOC3)C2)[nH]n1 (single isomer, unassigned) [Example 515]	11.3	1.25
CC(CC(F)(F)F)NC(=O)O[C@@H]1CC[C@H](c2cc(NC(=O)Cc3cnco3)n[nH]2)C1 (single isomer, unassigned) [Example 83]	33.3	0.69
CC1(NC(=O)O[C@@H]2CC[C@H](c3cc(NC(=O)Cc4cc(F)cc(F)c4)n[nH]3)C2)CCOC1 (single isomer, unassigned) [Example 120]	34.9	0.09
CC(C)NC(=O)O[C@@H]1CC[C@H](c2cc(NC(=O)C3COc4ccccc43)n[nH]2)C1 (single isomer, unassigned) [Example 56]	42.8	0.25
